Where only a bound is given, the exact number is not on record here.

T1 sequence (Q86WV6 whole entry H232R): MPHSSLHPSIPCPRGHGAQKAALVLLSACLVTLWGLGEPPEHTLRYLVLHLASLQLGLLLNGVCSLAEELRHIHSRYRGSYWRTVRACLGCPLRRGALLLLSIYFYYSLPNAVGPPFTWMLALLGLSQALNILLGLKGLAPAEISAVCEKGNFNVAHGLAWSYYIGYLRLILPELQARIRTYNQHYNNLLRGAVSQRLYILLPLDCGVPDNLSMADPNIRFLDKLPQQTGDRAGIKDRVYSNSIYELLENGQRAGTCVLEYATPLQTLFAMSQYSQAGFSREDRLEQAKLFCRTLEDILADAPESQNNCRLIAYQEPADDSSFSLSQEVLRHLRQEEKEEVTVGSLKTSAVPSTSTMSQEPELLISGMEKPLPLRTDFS

This test has as its target T1, WT/R232 STING protein (Homo sapiens, UniProt Q86WV6, H232R).
T1 construct: host or cells: HEK293T
The test can be described thus: Luciferase reporter assay in HEK293T-hSTING-Luciferase cells (R232). It is filed as cell-based. Particulars: 20 hr stimulation, EC50 range. The text has this: • a) Stable STING expressing cells—Stable HEK293T STING-expressing cell lines were generated using plasmids purchased from Invivogen, CA, USA, that contain STING cDNA cloned into the pUNO-1 vector under hEF1-HTLV promoter and containing the Blasticidin selection cassette. The plasmids hSTING (R232), hSTING (H232), hSTING (HAQ) were directly procured from Invivogen while hSTING (AQ) and hSTING (Q) were derived from hSTING (HAQ) and hSTING (R232) plasmids respectively by using a PCR based site directed mutagenesis method. These vectors were individually transfected into HEK293T cells using Lipofectamine (Invitrogen) and transfected cells were selected under Blasticidin selection. These transfected cells were further subjected to clonal selection using the limiting dilution method to obtain clonally pure populations of HEK cells transfected with each of the above mentioned human STING variants. Only those clones were selected in which ligand independent activation of STING was minimal. • b) Stable Luciferase reporter gene expressing cells—Stable HEK293T Luciferase reporter gene expressing cell lines were generated using pCDNA4 plasmids under an IRF-inducible promoter. This promoter is comprised of five tandem interferon-stimulated response elements (ISRE) fused to an ISG54 minimal promoter. This vector was transfected into HEK293T cells using Lipofectamine (Invitrogen) and transfected cells were selected under Zeocin selection. These transfected cells were further subjected to clonal selection using the limiting dilution method to obtain clonally pure populations of HEK cells transfected the Luciferase reporter construct. Only those clones were selected in which ligand independent induction of luciferase was minimal.
5×10^5 clonally selected HEK293T-hSTING-Luciferase cells were seeded in 384-well plates in growth medium and stimulated with novel compounds. After 20 hr of stimulation supernatant were removed and secretary reporter gene activity were measured using the Quanti-Luc detection system (Invivogen) on a Spectramax i3X luminometer.
All compounds were first tested in a primary screen using WT/R232 STING protein to obtain a ‘fold-induction’ over baseline levels of protein activity.
`Cc1cnc(CNC(=O)c2ccc3c(c2)N(Cc2c(F)cccc2Cl)C(=O)C3(C)C)o1` [Example 126, 1-(2-chloro-6-fluorobenzyl)-3,3-dimethyl-N-((5-methyloxazol-2-yl)methyl)-2-oxoindoline-6-carboxamide]: the EC50 was in the range of 1 to 10 µM. With `Cc1oc(-c2ccccc2)nc1CN1C(=O)C(C)(C)c2ccc(C(=O)NCc3c(F)cc(F)cc3F)cc21` [Example 91, 3,3-dimethyl-1-((5-methyl-2-phenyloxazol-4-yl)methyl)-2-oxo-N-(2,4,6-trifluorobenzyl)indoline-6-carboxamide], the concentration for a half-maximal effect (EC50) is greater than 10 µM. `Cc1ccc(CNC(=O)c2ccc3c(c2)N(C(C)c2ccc(F)cc2)C(=O)C3(C)C)o1` (centres unmarked) [Example 123, 1-(1-(4-fluorophenyl)ethyl)-3,3-dimethyl-N-((5-methylfuran-2-yl)methyl)-2-oxoindoline-6-carboxamide] yielded an EC50 of 1 to 10 µM. The result for `CC1(C)C(=O)N(Cc2cc(F)cc(F)c2)c2cc(C(=O)NCc3c(F)cc(F)cc3F)cnc21` [Example 179, 1-(3,5-Difluorobenzyl)-3,3-dimethyl-2-oxo-N-(2,4,6-trifluorobenzyl)-2,3-dihydro-1H-pyrrolo[3,2-b]pyridine-6-carboxamide] reads 1 to 10 µM. `CC1(C)C(=O)N(Cc2cc(F)cc(F)c2)c2cc(C(=O)NCc3cccc(C#N)c3)ccc21` [Example 44, N-(3-cyanobenzyl)-1-(3,5-difluorobenzyl)-3,3-dimethyl-2-oxoindoline-6-carboxamide] had an EC50 greater than 10 µM.

For the compound `CC1(C)C(=O)N(Cc2c(F)cccc2Cl)c2cc(C(=O)NCc3ccc4c(c3)CC(=O)N4)ccc21` [Example 95, 1-(2-chloro-6-fluorobenzyl)-3,3-dimethyl-2-oxo-N-((2-oxoindolin-5-yl)methyl)indoline-6-carboxamide], the EC50 was greater than 10 µM. Next, `CC1(O)C(=O)N(Cc2cc(F)cc(F)c2)c2cc(C(=O)NCc3c(F)cc(F)cc3F)ccc21` (centres unmarked) [Example 162]: greater than 10 µM; `CC1(C)C(=O)N(Cc2cc(F)cc(F)c2)c2cc(C(=O)NCC3CCC(F)(F)C3)ccc21` (centres unmarked) [Example 39, 1-(3,5-difluorobenzyl)-N-((3,3-difluorocyclopentyl)methyl)-3,3-dimethyl-2-oxoindoline-6-carboxamide]: greater than 10 µM; `Cc1cc(CN2C(=O)C(C)(C)c3ccc(C(=O)NCc4cc5ccccc5o4)nc32)ccn1` [Example 183, N-(benzofuran-2-ylmethyl)-3,3-dimethyl-1-((2-methylpyridin-4-yl)methyl)-2-oxo-2,3-dihydro-1H-pyrrolo[2,3-b]pyridine-6-carboxamide]: 1 to 10 µM. The result for `CC1(O)C(=O)N(Cc2c(F)cccc2Cl)c2cc(C(=O)NCc3c(F)cc(F)cc3F)ccc21` (centres unmarked) [Example 143, 1-(2-Chloro-6-fluorobenzyl)-3-hydroxy-3-methyl-2-oxo-N-(2,4,6-trifluorobenzyl)indoline-6-carboxamide] reads greater than 10 µM; that for `CC1(C)C(=O)N(Cc2cc(F)cc(F)c2)c2nc(C(=O)NCc3cc4ccncc4o3)ccc21` [Example 187, 1-(3,5-difluorobenzyl)-N-(furo[2,3-c]pyridin-2-ylmethyl)-3,3-dimethyl-2-oxo-2,3-dihydro-1H-pyrrolo[2,3-b]pyridine-6-carboxamide], greater than 10 µM; that for `CC1(C)C(=O)N(Cc2cc3ccccc3o2)c2cc(C(=O)NCc3c(F)cc(F)cc3F)ccc21` [Example 131, 1-(benzofuran-2-ylmethyl)-3,3-dimethyl-2-oxo-N-(2,4,6-trifluorobenzyl)indoline-6-carboxamide], greater than 10 µM. Consider `Cc1cc(CN2C(=O)C(C)(C)c3ccc(C(=O)NCc4ccc(C)o4)cc32)ccn1` [Example 55, 3,3-dimethyl-N-((5-methylfuran-2-yl)methyl)-1-((2-methylpyridin-4-yl)methyl)-2-oxoindoline-6-carboxamide], for which the EC50 was greater than 10 µM. The result for `CC1(C)C(=O)N(Cc2ccc(C(N)=O)cc2)c2cc(C(=O)NCc3c(F)cc(F)cc3F)ccc21` [Example 120, 1-(4-carbamoylbenzyl)-3,3-dimethyl-2-oxo-N-(2,4,6-trifluorobenzyl)indoline-6-carboxamide] reads greater than 10 µM. The result for `CC1(CCO)C(=O)N(Cc2cc(F)cc(F)c2)c2cc(C(=O)NCc3ccc(F)cc3F)ccc21` (centres unmarked) [Example 174, N-(2,4-difluorobenzyl)-1-(3,5-difluorobenzyl)-3-(2-hydroxyethyl)-3-methyl-2-oxoindoline-6-carboxamide] reads greater than 10 µM. Next, `Cc1cc(CN2C(=O)C(C)(C)c3ccc(C(=O)NCc4c(F)cc(F)cc4F)nc32)ccn1` [Example 185, 3,3-dimethyl-1-((2-methylpyridin-4-yl)methyl)-2-oxo-N-(2,4,6-trifluorobenzyl)-2,3-dihydro-1H-pyrrolo[2,3-b]pyridine-6-carboxamide]: 1 to 10 µM; `CC1(C)C(=O)N(Cc2cc(F)cc(F)c2)c2cc(C(=O)NCc3ccc(F)cc3F)cnc21` [Example 199, N-(2,4-difluorobenzyl)-1-(3,5-difluorobenzyl)-3,3-dimethyl-2-oxo-2,3-dihydro-1H-pyrrolo[3,2-b]pyridine-6-carboxamide]: 1 to 10 µM; `CC1(C)C(=O)N(Cc2c(F)cccc2Cl)c2cc(C(=O)NCc3cccc(Cl)c3)ccc21` [Example 9, 1-(2-chloro-6-fluorobenzyl)-N-(3-chlorobenzyl)-3,3-dimethyl-2-oxoindoline-6-carboxamide]: 1 to 10 µM. The compound `O=C(NCc1ccco1)c1ccc2c(c1)N(Cc1ccccc1F)C(=O)C2(F)F` [Example 133, 3.3-Difluoro-1-(2-fluorobenzyl)-N-(furan-2-ylmethyl)-2-oxoindoline-6-carboxamide] displayed an EC50 greater than 10 µM. The result for `Cc1cccc(-c2nc(CN3C(=O)C(C)(C)c4ccc(C(=O)NCc5c(F)cc(F)cc5F)cc43)c(C)o2)c1` [Example 78, 3,3-dimethyl-1-((5-methyl-2-(m-tolyl)oxazol-4-yl)methyl)-2-oxo-N-(2,4,6-trifluorobenzyl)indoline-6-carboxamide] reads greater than 10 µM. The result for `CC1(C)C(=O)N(Cc2cc(F)cc(F)c2)c2nc(C(=O)NCc3ccc(C#N)cc3)ccc21` [Example 192, N-(4-cyanobenzyl)-1-(3,5-difluorobenzyl)-3,3-dimethyl-2-oxo-2,3-dihydro-1H-pyrrolo[2,3-b]pyridine-6-carboxamide] reads 1 to 10 µM; that for `Cc1ccc(CNC(=O)c2ccc3c(c2)N(Cc2ccccc2Cl)C(=O)C3(C)C)o1` [Example 51, 1-(2-chlorobenzyl)-3,3-dimethyl-N-((5-methylfuran-2-yl)methyl)-2-oxoindoline-6-carboxamide], 1 to 10 µM. For `Cc1cccc(F)c1CN1C(=O)C(C)(C)c2ncc(C(=O)NCc3ccc(F)cc3)cc21` [Example 197, 1-(2-fluoro-6-methylbenzyl)-N-(4-fluorobenzyl)-3,3-dimethyl-2-oxo-2,3-dihydro-1H-pyrrolo[3,2-b]pyridine-6-carboxamide], the EC50 is greater than 10 µM.

The compound `CC1(C)C(=O)N(Cc2cccc(C(F)(F)F)c2)c2cc(C(=O)NCc3c(F)cc(F)cc3F)ccc21` [Example 17, 3,3-dimethyl-2-oxo-N-(2,4,6-trifluorobenzyl)-1-(3-(trifluoromethyl)benzyl)indoline-6-carboxamide] gave a half-maximal effective concentration (EC50) of 1 to 10 µM. The result for `CC1(C)C(=O)N(Cc2cc(F)cc(F)c2)c2c1ccc(C(=O)NCc1cc3ccccc3o1)c2F` [Example 34, N-(benzofuran-2-ylmethyl)-1-(3,5-difluorobenzyl)-7-fluoro-3,3-dimethyl-2-oxoindoline-6-carboxamide] reads greater than 10 µM; that for `Cn1cccc1CNC(=O)c1ccc2c(c1)N(Cc1c(F)cccc1Cl)C(=O)C2(C)C` [Example 127, 1-(2-chloro-6-fluorobenzyl)-3,3-dimethyl-N-((1-methyl-1H-pyrrol-2-yl)methyl)-2-oxoindoline-6-carboxamide], greater than 10 µM. With `O=C(NCc1c(F)cc(F)cc1F)c1ccc2c(c1)N(Cc1c(F)cccc1Cl)C(=O)C2(Cl)c1ccccc1` (centres unmarked) [Example 156, 3-chloro-1-(2-chloro-6-fluorobenzyl)-2-oxo-3-phenyl-N-(2,4,6-trifluorobenzyl)indoline-6-carboxamide], the EC50 is greater than 10 µM.

Regarding `CC1(C)C(=O)N(Cc2cc(F)cc(F)c2)c2cc(C(=O)NCc3ccc(F)o3)ccc21` [Example 69, 1-(3,5-difluorobenzyl)-N-((5-fluorofuran-2-yl)methyl)-3,3-dimethyl-2-oxoindoline-6-carboxamide], the EC50 is 1 to 10 µM. The result for `CC1(C)C(=O)N(Cc2c(F)cccc2Cl)c2cc(C(=O)NCc3cc4cc([N+](=O)[O-])ccc4o3)ccc21` [Example 94, 1-(2-chloro-6-fluorobenzyl)-3,3-dimethyl-N-((5-nitrobenzofuran-2-yl)methyl)-2-oxoindoline-6-carboxamide] reads 1 to 10 µM.

These data come from US20200172483A1, “HETEROCYCLIC SMALL MOLECULE MODULATORS OF HUMAN STING” (Curadev Pharma Limited, priority 2017, published 2020).
